Values quoted from earlier work, collected in patent US8410056B2, “Pro-oxidant anti-cancer compounds” (priority 2006, dated 2013).

Key:
B16(F10) = conditions: B16(F10); He et al, 1997; cited from earlier work
MDA-MB-435 = conditions: cited from earlier work
MCF7 = conditions: cited from earlier work
LNCaP, PC-3 = conditions: Shiau et al, 2006; cited from earlier work
[1] = test system: neoplastic + SA mammary epithelial cells; conditions: cited from earlier work

CC(C)=CCC/C(C)=C/CC/C(C)=C/CC[C@]1(C)CCc2c(C)c(O)c(C)c(C)c2O1 [Compound 53, α-tocotrienol]
IC50 (B16(F10)): 110 µM | IC50 (MDA-MB-435): 210 µM | IC50 (MCF7): 14 µM

Cc1c(C)c2c(c(C)c1OC(=O)CCC(=O)O)CCC(C)(C)O2 [Compound 46]
IC50 (LNCaP, PC-3): > 100 µM

CC(C)=CCC/C(C)=C/CC/C(C)=C/CC[C@]1(C)CCc2cc(O)c(C)c(C)c2O1 [Compound 56, γ-tocotrienol]
IC50 [1]: 4 µM | IC50 (B16(F10)): 20 µM
